Among the data in ChEMBL document CHEMBL4483862, “Open-source discovery of chemical leads for next-generation chemoprotective antimalarials” (2018) are IC50 and IC90 values, retold here.

For the test, the system named is Plasmodium berghei. Nature of the test: Luciferase/luciferin-expressing antifolate-resistant parasites were used to infect a culture of HepG2 cells that were pre-incubated with compounds. Infected hepatocytes emit light due to the luciferase reaction. Assay results are presented as the percent inhibition of light emission compared to control. […]. The class given is functional. The conditions noted are these: sporozoite; for IC90: read-out: LUCIFERASE INFECTION ASSAY - IC90.

Consider `CC(C)c1ccc(NC(=O)c2snc3ccc(Cl)cc23)cc1`, for which the IC90 was 6.63 µM. Besides, the IC50 (HEPG2TOX_HILL_SLOPE 2.78, HEPG2TOX_R_SQUARED 0.915, PBLUC_HILL_SLOPE 3.55, PBLUC_R_SQUARED 0.653, read-out: LUCIFERASE INFECTION ASSAY - IC50) amounted to 3.57 µM.
Consider `Cc1ccc(C(=O)NN(C)c2nc3ccccc3nc2C(F)(F)F)cc1`, for which the IC90 was determined as 8.54 µM. In addition, under “HEPG2TOX_HILL_SLOPE 2.8, HEPG2TOX_R_SQUARED 0.955, PBLUC_HILL_SLOPE 3.11, PBLUC_R_SQUARED 0.656, read-out: LUCIFERASE INFECTION ASSAY - IC50”, the IC50 stood at 4.21 µM.
For `O=C(CSc1nnc(-c2ccco2)o1)OCc1cc(F)cc2c1OC(c1ccccc1)OC2` (configuration not stated), the IC90 turned out to be 4.11 µM. Besides, where the note is “HEPG2TOX_HILL_SLOPE 2.76, 2.27, HEPG2TOX_R_SQUARED 0.916, 0.957, PBLUC_HILL_SLOPE 6.02, 15.8, PBLUC_R_SQUARED 0.479, 0.425, read-out: LUCIFERASE INFECTION ASSAY - IC50”, the IC50 was determined as 3.17 µM.
With `Fc1ccc(-c2cs/c(=N\CC3CCCO3)n2/N=C/c2ccccc2F)cc1` (configuration not stated), the IC90 was greater than 10 µM. Moreover, under “HEPG2TOX_HILL_SLOPE 2.73, HEPG2TOX_R_SQUARED 0.938, PBLUC_HILL_SLOPE 4.49, 0.768, PBLUC_R_SQUARED 0.141, 0.452, read-out: LUCIFERASE INFECTION ASSAY - IC50”, the IC50 worked out at 5.54 µM.
Consider `CC(C)c1ccc(/C=C/C(=O)NN=c2nc[nH]c3ccccc23)cc1`, for which the IC90 was greater than 10 µM. In addition, the IC50 (HEPG2TOX_HILL_SLOPE 2.75, HEPG2TOX_R_SQUARED 0.845, PBLUC_HILL_SLOPE 8.02, PBLUC_R_SQUARED 0.305, read-out: LUCIFERASE INFECTION ASSAY - IC50) stood at 8.64 µM.
For `O=c1c2ccccc2nnn1CSc1nc2ccccc2c(=O)n1CCC1=CCCCC1`, the IC90 came to 9.59 µM. The IC50 (HEPG2TOX_HILL_SLOPE 2.76, HEPG2TOX_R_SQUARED 0.854, PBLUC_HILL_SLOPE 2.95, PBLUC_R_SQUARED 0.421, read-out: LUCIFERASE INFECTION ASSAY - IC50) was 4.55 µM.
Turning to `COc1ccc(-c2c(C)nn3c(=O)cc(CSc4ccc(C)cc4)[nH]c23)cc1`, the IC90 is 3.91 µM. In addition, the IC50 (HEPG2TOX_HILL_SLOPE 2.74, HEPG2TOX_R_SQUARED 0.727, PBLUC_HILL_SLOPE 9.33, PBLUC_R_SQUARED 0.653, read-out: LUCIFERASE INFECTION ASSAY - IC50) stood at 3.09 µM.
Consider `COc1ccc(Sc2nc(N(C)C)ncc2OC)cc1`, for which the IC90 is greater than 11.3 µM. Besides, the 50% inhibitory concentration (IC50) (HEPG2TOX_HILL_SLOPE 2.8, HEPG2TOX_R_SQUARED 0.967, PBLUC_HILL_SLOPE 2.43, PBLUC_R_SQUARED 0.609, read-out: LUCIFERASE INFECTION ASSAY - IC50) stood at 6.22 µM.
Take `CCc1nc2oc3ccccc3c(=O)c2c(=O)n1CCc1ccccc1`: the IC90 is greater than 9.53 µM. Moreover, the IC50 (HEPG2TOX_HILL_SLOPE 2.79, HEPG2TOX_R_SQUARED 0.325, PBLUC_HILL_SLOPE 2.85, PBLUC_R_SQUARED 0.319, read-out: LUCIFERASE INFECTION ASSAY - IC50) turned out to be 4.63 µM.
Take `Cc1oc2c(c1C(=O)NC(C)(C)C)C(=O)c1ccccc1C2=O`: the IC90 is 4.63 µM. Moreover, the IC50 (HEPG2TOX_HILL_SLOPE 2.79, HEPG2TOX_R_SQUARED 0.986, PBLUC_HILL_SLOPE 0.957, PBLUC_R_SQUARED 0.592, read-out: LUCIFERASE INFECTION ASSAY - IC50) came out at 0.466 µM.
`CCCCNC(=O)c1c(NC(=O)c2cccc(OC)c2)nc2ccccn12`: the IC90 was 4.95 µM. In addition, the IC50 (HEPG2TOX_HILL_SLOPE 2.8, HEPG2TOX_R_SQUARED 0.959, PBLUC_HILL_SLOPE 5.29, PBLUC_R_SQUARED 0.462, read-out: LUCIFERASE INFECTION ASSAY - IC50) worked out at 3.27 µM.
As for `O=C(NNC(=O)c1cc(-c2ccc(Cl)s2)nc2ccccc12)c1cnccn1`, the IC90 worked out at 1.27 µM. For the setting “HEPG2TOX_HILL_SLOPE 2.73, HEPG2TOX_R_SQUARED 0.802, PBLUC_HILL_SLOPE 17.7, PBLUC_R_SQUARED 0.568, read-out: LUCIFERASE INFECTION ASSAY - IC50”, the IC50 is 1.12 µM.
Take `COc1ccc(C2=NN=C/C2=N\Nc2ccc(C(F)(F)F)cc2)cc1`: the IC90 turned out to be 7.39 µM. In addition, the IC50 (HEPG2TOX_HILL_SLOPE 2.77, HEPG2TOX_R_SQUARED 0.967, PBLUC_HILL_SLOPE 4.55, PBLUC_R_SQUARED 0.276, read-out: LUCIFERASE INFECTION ASSAY - IC50) worked out at 4.56 µM.
On to `CC(=O)c1cccc(-c2cnc3ccc(-c4ccc(F)cc4)nn23)c1`, for which the IC90 was 4.45 µM. Also, under “HEPG2TOX_HILL_SLOPE 2.73, HEPG2TOX_R_SQUARED 0.88, PBLUC_HILL_SLOPE 3.37, PBLUC_R_SQUARED 0.558, read-out: LUCIFERASE INFECTION ASSAY - IC50”, the IC50 worked out at 2.32 µM.
For `CC1=CC2(C)C3C(=O)N(c4ccc(OC(F)(F)F)cc4)C(=O)C3C1C1C(=O)N(c3ccc(OC(F)(F)F)cc3)C(=O)C12` (configuration not stated), the IC90 is greater than 5.55 µM. Further, the IC50 (HEPG2TOX_HILL_SLOPE 2.78, HEPG2TOX_R_SQUARED 0.438, PBLUC_HILL_SLOPE 7.06, PBLUC_R_SQUARED 0.285, read-out: LUCIFERASE INFECTION ASSAY - IC50) came to 5.08 µM.
`Cc1ccc([N+](=O)[O-])cc1S(=O)(=O)Nc1ccccc1C(=O)OCC(=O)NCCC1=CCCCC1`: the IC90 was greater than 10 µM. For the same compound, where the note is “HEPG2TOX_HILL_SLOPE 2.79, HEPG2TOX_R_SQUARED 0.956, PBLUC_HILL_SLOPE 19.8, PBLUC_R_SQUARED 0.561, read-out: LUCIFERASE INFECTION ASSAY - IC50”, the IC50 was determined as 9.09 µM.
As to `Cc1ccc(COC(=O)c2cccc(S(=O)(=O)NCc3ccccc3)c2)cc1`, the IC90 was 4.92 µM. Moreover, the IC50 (HEPG2TOX_HILL_SLOPE 2.79, HEPG2TOX_R_SQUARED 0.991, PBLUC_HILL_SLOPE 8.82, PBLUC_R_SQUARED 0.278, read-out: LUCIFERASE INFECTION ASSAY - IC50) was 3.84 µM.
Take `N#Cc1ccc(NCCNc2nc3ccccc3s2)nc1`: the IC90 was 4.32 µM. Besides, the IC50 (HEPG2TOX_HILL_SLOPE 2.81, HEPG2TOX_R_SQUARED 0.729, PBLUC_HILL_SLOPE 4.52, PBLUC_R_SQUARED 0.618, read-out: LUCIFERASE INFECTION ASSAY - IC50) was determined as 2.66 µM.
Take `COc1ccc(NS(=O)(=O)c2cc(NC(=O)C3=NNC(=O)CC3)ccc2C)cc1`: the IC90 is greater than 10 µM. Moreover, for the setting “HEPG2TOX_HILL_SLOPE 2.75, HEPG2TOX_R_SQUARED 0.923, PBLUC_HILL_SLOPE 2.64, PBLUC_R_SQUARED 0.0563, read-out: LUCIFERASE INFECTION ASSAY - IC50”, the concentration for half-maximal inhibition (IC50) amounted to 4.97 µM.
`COc1cccc(Nc2nccc3[nH]c(-c4cccc(F)c4)cc23)c1`: the IC90 came out at 2.27 µM. The IC50 (HEPG2TOX_HILL_SLOPE 2.76, HEPG2TOX_R_SQUARED 0.828, PBLUC_HILL_SLOPE 2.74, PBLUC_R_SQUARED 0.773, read-out: LUCIFERASE INFECTION ASSAY - IC50) turned out to be 1.02 µM.
Take `Cc1cc(-c2ccccc2)[n+]2nc(N)c3ccccc3c2n1`: the IC90 is greater than 10 µM. The IC50 (HEPG2TOX_HILL_SLOPE 2.74, HEPG2TOX_R_SQUARED 0.909, PBLUC_HILL_SLOPE 12.1, PBLUC_R_SQUARED 0.242, read-out: LUCIFERASE INFECTION ASSAY - IC50) was 9.17 µM.
In the case of `CCC(C)NC(=O)c1c(NC(=O)c2ccccc2Cl)nc2ccc(C)cn12` (configuration not stated), the IC90 stood at 3.78 µM. Further, the IC50 (HEPG2TOX_HILL_SLOPE 2.82, HEPG2TOX_R_SQUARED 0.923, PBLUC_HILL_SLOPE 8.99, PBLUC_R_SQUARED 0.855, read-out: LUCIFERASE INFECTION ASSAY - IC50) turned out to be 2.96 µM.
Turning to `CCOC(=O)c1cnn(-c2ccc(NC(=O)c3sc4nc5n(c(=O)c4c3C)CCC5)cc2)c1C`, the IC90 was 2.97 µM. In addition, the concentration for half-maximal inhibition (IC50) (HEPG2TOX_HILL_SLOPE 2.74, HEPG2TOX_R_SQUARED 0.98, PBLUC_HILL_SLOPE 1.74, PBLUC_R_SQUARED 0.848, read-out: LUCIFERASE INFECTION ASSAY - IC50) came to 0.838 µM.
`CCOc1ccc(OCC)c(S(=O)(=O)Oc2cccc3cccnc23)c1`: the IC90 was found to be 7.66 µM. For the same compound, where the note is “HEPG2TOX_HILL_SLOPE 2.73, HEPG2TOX_R_SQUARED 0.737, PBLUC_HILL_SLOPE 3.92, PBLUC_R_SQUARED 0.473, read-out: LUCIFERASE INFECTION ASSAY - IC50”, the IC50 was 4.37 µM.
Turning to `CS(=O)(=O)c1ccc(-c2ccc3ncc(-c4cccc(CO)c4)n3n2)cc1`, the IC90 is 3.89 µM. Moreover, the IC50 (HEPG2TOX_HILL_SLOPE 2.77, HEPG2TOX_R_SQUARED 0.883, PBLUC_HILL_SLOPE 15.3, PBLUC_R_SQUARED 0.0795, read-out: LUCIFERASE INFECTION ASSAY - IC50) is 3.37 µM.
On to `CN(C)c1ccc(C(=O)/C=C/c2ccccc2C(F)(F)F)cc1`, for which the IC90 is 3.94 µM. For the same compound, the IC50 (HEPG2TOX_HILL_SLOPE 2.82, HEPG2TOX_R_SQUARED 0.851, PBLUC_HILL_SLOPE 15.9, PBLUC_R_SQUARED 0.328, read-out: LUCIFERASE INFECTION ASSAY - IC50) was determined as 3.43 µM.

Broadly, the IC50 is the concentration needed to halve the response being measured. In general, IC90 refers to the concentration needed for an effect of 90%.
